Measured values as given in patent US7897582B2, “Oligonucleotide compositions and methods for the modulation of the expression of B7 protein” (Isis Pharmaceuticals, Inc., priority 2003, dated 2011).
Strand notation (5' to 3'): a small letter for the sugar, then the base; units joined by * are phosphorothioate-linked, units joined directly phosphodiester-linked; [ ] holds rarer units or linkages, { } end groups; capitals alone tell only the bases. e = 2'-O-(2-methoxyethyl) (MOE); [5mC] = 5-methylcytosine; d = 2'-deoxy (DNA)

Tests used:
human B7-2 = experiment: Cell surface expression of B7-2 in transfected COS-7 cells by flow cytometry; type: cell-based; set-up: % Control Protein: concentration or dose not given beside the values; conditions: for B7-2 expression relative to untreated cells / inhibitory activity on B7-2 cell surface expression: 200 nM; for B7-2 expression relative to untreated cells: protein expression assay, ISIS 10996 and 2′-O-methyl derivatives; for activity in the B7-2 protein expression assay: ISIS 10373 deletion derivatives, FIG. 4; for % Control Protein: hB7-2 protein, flow cytometry, Table 5; for inhibitory activity on B7-2 cell surface expression: FIG. 3
Procedure: A T-175 flask was seeded at 75% confluency with COS-7 cells (ATCC accession No. CRL 1651). The plasmid pcB7-1 was introduced into cells by standard calcium phosphate transfection. Following a 4 hour transfection, the cells were trypsinized and seeded in 12-well dishes at 80% confluency. The cells were allowed to adhere to the plastic for 1 hour and were then washed with phosphate-buffered saline (PBS). OptiMEM™ (GIBCO-BRL, Gaithersburg, Md.) medium was added along with 15 μg/mL of Lipofectin™ (GIBCO-BRL, Gaithersburg, Md.) and oligonucleotide at the indicated concentrations. After four additional hours, the cells were washed with phosphate buffered saline (PBS) and incubated with fresh oligonucleotide at the same concentration in DMEM (Dulbecco et al., Virol., 1959, 8, 396; Smith et al., Virol., 1960, 12, 185) with 10% fetal calf sera (FCS).
In order to monitor the effects of oligonucleotides on cell surface expression of B7-1, treated COS-7 cells were harvested by brief trypsinization 24-48 hours after oligonucleotide treatment. The cells were washed with PBS, then resuspended in 100 μL of staining buffer (PBS, 0.2% BSA, 0.1% azide) with 5 μL conjugated anti-B7-1-antibody (i.e., anti-hCD80-FITC, Ancell, Bayport, Minn.; FITC: fluorescein isothiocyanate). The cells were stained for 30 minutes at 4° C., washed with PBS, resuspended in 300 μL containing 0.5% paraformaldehyde. Cells were harvested and the fluorescence profiles were determined using a flow cytometer.
In an initial screen, the ability of hB7-2 oligonucleotides to inhibit B7-2 expression was evaluated by measuring the cell surface expression of B7-2 in transfected COS-7 cells by flow cytometry. The methods used were similar to those given in Example 2, with the exceptions that (1) COS-7 cells were transfected with the plasmids pbcB7-2 or BBG-58, a human ICAM-1 (CD54) expression vector (R&D Systems, Minneapolis, Minn.) introduced into cells by standard calcium phosphate transfection, (2) the oligonucleotides used were those described in Table 2, and (3) a conjugated anti-B7-2 antibody (i.e., anti-hCD86-FITC or anti-CD86-PE, PharMingen, San Diego, Calif.; PE: phycoerythrin) was used during flow cytometry.
B7 antisense oligonucleotides were tested for their effect on cell surface expression of both B7-1 and B7-2. Cell surface expression was measured as described in Example 1. Experiments were done for both human B7 and mouse B7.
The oligonucleotides were screened as described in Example 2 except that the concentration of oligonucleotide was varied as shown in Table 19.

hB7-2 mRNA = experiment: Ribonuclease protection assay of hB7-2 mRNA in transfected COS-7 cells; type: cell-based, human; set-up: % Control RNA Expression: concentration or dose not given beside the values; conditions: hB7-2 mRNA; Table 5
Procedure: For ribonuclease protection assays, cells were harvested 18 hours after completion of oligonucleotide treatment using a Totally RNA™ kit (Ambion, Austin, Tex.). The probes for the assay were generated from plasmids pcB7-2 (linearized by digestion with Bgl II) and pTRI-b-actin (Ambion Inc., Austin, Tex.). In vitro transcription of the linearized plasmid from the SP6 promoter was performed in the presence of α-^32P-UTP (800 Ci/mmole) yielding an antisense RNA complementary to the 3′ end of B7-2 (position 1044-1391). The probe was gel-purified after treatment with DNase I to remove DNA template. Ribonuclease protection assays were carried out using an RPA II™ kit (Ambion) according to the manufacturer's directions. Total RNA (5 μg) was hybridized overnight, at 42° C., with 10^5 cpm of the B7-2 probe or a control beta-actin probe. The hybridization reaction was then treated, at 37° C. for 30 minutes, with 0.4 units of RNase A and 2 units of RNase T1. Protected RNA was precipitated, resuspended in 10 μL of gel loading buffer and electrophoresed on a 6% acrylamide gel with 50% w/v urea at 20 W. The gel was then exposed and the lanes quantitated using a PhosphorImager (Molecular Dynamics, Sunnyvale, Calif.) essentially according to the manufacturer's instructions.
The oligonucleotides were screened as described in Example 4 except that the concentration of oligonucleotide was varied as shown in Table 13. Mismatch control oligonucleotides were included.

human B7.2 mRNA = experiment: Human B7.2 mRNA levels in THP-1 cells by quantitative real-time PCR (Example 27); type: cell-based; set-up: concentration or dose not given beside the values
Text: In accordance with the present invention, an additional series of antisense compounds were designed to target different regions of the human B7.2 RNA, using published sequences (GenBank accession number U04343.1, incorporated herein as SEQ ID NO: 295, GenBank accession number BC040261.1, incorporated herein as SEQ ID NO: 296 and GenBank accession number NT—005543.12, a portion of which is incorporated herein as SEQ ID NO: 297). “Target site” indicates the first (5′-most) nucleotide number on the particular target sequence to which the compound binds. All compounds in Table 25 are chimeric oligonucleotides (“gapmers”) 20 nucleotides in length, composed of a central “gap” region consisting of ten 2′-deoxynucleotides, which is flanked on both sides (5′ and 3′ directions) by five-nucleotide “wings”. The wings are composed of 2′-methoxyethyl (2′-MOE)nucleotides. The internucleoside (backbone) linkages are phosphorothioate (P═S) throughout the oligonucleotide. All cytidine residues are 5-methylcytidines. The compounds were analyzed for their effect on human B7.2 mRNA levels in THP-1 cells by quantitative real-time PCR as described in other examples herein. Data are averages from three experiments. If present, “N.D.” indicates “no data”.

Substance	% Control Protein (human B7-2) [%]	% Control RNA Expression (hB7-2 mRNA) [%]	% INHIB (inhibition of human B7.2 mRNA levels) (human B7.2 mRNA) [%]	other results
5′-GCG-AGC-TCC-CCG-TAC (antisense GCGAGCTCCCCGTAC; listed as DNA, chemistry not given here) [ISIS 10996, 15-mer derived from ISIS 10373, 0015-0029; 5′-UTR]				B7-2 expression relative to untreated cells (human B7-2): about 50%; activity in the B7-2 protein expression assay (human B7-2): as (or more) active
9133 (antisense dT*dT*dC*dC*dA*dG*dG*dT*dC*dA*dT*dG*dA*dG*dC*dC*dA*dT*dT*dA) [compound 9133]	70.2	46.0		
9134 (antisense dC*dA*dT*dA*dA*dG*dG*dT*dG*dT*dG*dC*dT*dC*dT*dG*dA*dA*dG*dT*dG) [compound 9134]	88.8	94.5		
9135 (antisense dT*dT*dA*dC*dT*dC*dA*dT*dG*dG*dT*dA*dA*dT*dG*dT*dC*dT*dT*dT) [compound 9135]	98.2	83.4		
9136 (antisense dA*dT*dT*dA*dA*dA*dA*dA*dC*dA*dT*dG*dT*dA*dT*dC*dA*dC*dT*dT) [compound 9136]	97.1	103.1		
9137 (antisense dG*dG*dA*dA*dC*dA*dC*dA*dG*dA*dA*dG*dC*dA*dA*dG*dG*dT*dG*dG*dT) [compound 9137]	80.5	78.1		
9138 (antisense dC*dC*dG*dT*dA*dC*dC*dT*dC*dC*dT*dA*dA*dG*dG*dC*dT*dC*dC*dT) [compound 9138]	86.4	65.9		
9139 (antisense dC*dC*dC*dA*dT*dA*dG*dT*dG*dC*dT*dG*dT*dC*dA*dC*dA*dA*dA*dT) [compound 9139]	47.9	32.6		
10367 (antisense dG*dC*dA*dC*dA*dG*dC*dA*dG*dC*dA*dT*dT*dC*dC*dC*dA*dA*dG*dG) [compound 10367]	71.3	52.5		
10368 (antisense dT*dT*dG*dC*dA*dA*dA*dT*dT*dG*dG*dC*dA*dT*dG*dG*dC*dA*dG*dG) [compound 10368]	81.0	84.5		
10369 (antisense dT*dG*dG*dT*dA*dT*dG*dG*dG*dC*dT*dT*dT*dA*dC*dT*dC*dT*dT*dT) [compound 10369]	71.3	81.5		
323686 (antisense e[5mC]*eT*e[5mC]*eT*e[5mC]*d[5mC]*dA*dT*dT*dG*dT*dG*dT*dT*dG*eG*eT*eT*e[5mC]*e[5mC]) [compound 323686]			53	
323687 (antisense e[5mC]*eT*eT*e[5mC]*e[5mC]*d[5mC]*dT*d[5mC]*dT*d[5mC]*d[5mC]*dA*dT*dT*dG*eT*eG*eT*eT*eG) [compound 323687]			19	
323688 (antisense eT*eG*eG*eT*e[5mC]*dT*dG*dT*dT*d[5mC]*dA*d[5mC]*dT*d[5mC]*dT*e[5mC]*eT*eT*e[5mC]*e[5mC]) [compound 323688]			58	
323689 (antisense eT*eT*e[5mC]*eA*eT*d[5mC]*dA*dG*dA*dT*d[5mC]*dT*dT*dT*d[5mC]*eA*eG*eG*eT*eA) [compound 323689]			43	
323690 (antisense eA*eT*e[5mC]*eA*e[5mC]*dT*dT*dT*dT*dG*dT*d[5mC]*dG*d[5mC]*dA*eT*eG*eA*eA*eG) [compound 323690]			82	
323691 (antisense eG*e[5mC]*eT*eT*eT*dA*d[5mC]*dT*d[5mC]*dT*dT*dT*dA*dA*dT*eT*eA*eA*eA*eA) [compound 323691]			40	
323692 (antisense eG*eT*eA*eT*eG*dG*dG*d[5mC]*dT*dT*dT*dA*d[5mC]*dT*d[5mC]*eT*eT*eT*eA*eA) [compound 323692]			57	
323693 (antisense eA*eT*eA*e[5mC]*eT*dT*dG*dT*dA*dT*dG*dG*dG*d[5mC]*dT*eT*eT*eA*e[5mC]*eT) [compound 323693]			62	
323694 (antisense eA*eA*eT*eG*eA*dA*dT*dA*d[5mC]*dT*dT*dG*dT*dA*dT*eG*eG*eG*e[5mC]*eT) [compound 323694]			71	
ISIS 10715: scrambled control of # 9133; SEQ ID NO: 76 (antisense dG*dA*dT*dT*dT*dA*dA*dC*dA*dT*dT*dT*dG*dG*dC*dG*dC*dC*dC*dA) [reference compound]				inhibitory activity on B7-2 cell surface expression (human B7-2): no inhibitory activity
ISIS 10716: scrambled # 9136; SEQ ID NO: 77 (antisense dA*dA*dA*dG*dT*dT*dA*dC*dA*dA*dC*dA*dT*dT*dA*dT*dA*dT*dC*dT) [reference compound]				inhibitory activity on B7-2 cell surface expression (human B7-2): no inhibitory activity
ISIS 10991: # 10373 deletion derivative, 10-mer, 0015-0024; SEQ ID NO: 85 (antisense dC*dT*dC*dC*dC*dC*dG*dT*dA*dC)				activity in the B7-2 protein expression assay (human B7-2): little or no activity
ISIS 10992: # 10373 deletion derivative, 11-mer, 0015-0025; SEQ ID NO: 86 (antisense dG*dC*dT*dC*dC*dC*dC*dG*dT*dA*dC)				activity in the B7-2 protein expression assay (human B7-2): little or no activity
ISIS 10993: # 10373 deletion derivative, 12-mer, 0015-0026; SEQ ID NO: 87 (antisense dA*dG*dC*dT*dC*dC*dC*dC*dG*dT*dA*dC)				activity in the B7-2 protein expression assay (human B7-2): little or no activity
ISIS 10994: # 10373 deletion derivative, 13-mer, 0015-0027; SEQ ID NO: 88 (antisense dG*dA*dG*dC*dT*dC*dC*dC*dC*dG*dT*dA*dC)				activity in the B7-2 protein expression assay (human B7-2): little or no activity
ISIS 10995: # 10373 deletion derivative, 14-mer, 0015-0028; SEQ ID NO: 89 (antisense dC*dG*dA*dG*dC*dT*dC*dC*dC*dC*dG*dT*dA*dC)				activity in the B7-2 protein expression assay (human B7-2): little or no activity
ISIS 11539: fully 2′MO # 10996; SEQ ID NO: 90 (antisense GCGAGCTCCCCGTAC; all 2'-O-methyl, all phosphorothioate, T or U not given here)				B7-2 expression relative to untreated cells (human B7-2): not active at all
